System: L1210FR cells
Experiment: MTT cytotoxicity assay, L1210FR cells
Type: cell-based
Settings: read-out: IC50 of drug itself
Protocol: Cell culture. L1210 (ATCC) and L1210FR (a gift from Dr. Gregory Russell-Jones, Access Pharmaceuticals Australia Pty Ltd., Targeted Delivery, Unit 5, 15-17 Gibbes St, Chatswood, NSW, Sydney 2067. Australia) were grown as suspension in a RPMI-1640 cell culture medium (Gibco) in the absence of folic acid (FA) supplemented with 10% (v/v) heat-inactivated fetal bovine serum (FBS) and 1% (v/v) Penicillin and Streptomycin (P/S) at 37° C. in humidified atmosphere with 5% CO2. W1-38 embryonic fibroblast cells (ATCC) were cultured as monolayers on a 100 mm tissue culture dishes in a DMEM cell culture medium (Gibco) supplemented with 10% (v/v) heat-inactivated FBS and 1% (v/v) P/S at 37° C. in humidified atmosphere with 5% CO2. The cells were harvested, collected by centrifugation at 1000 rpm for 6 min, and resuspended in fresh medium at different cell density for biological experiments.
Cytotoxicity assay of conjugate 3. The cells were harvested, collected, and resuspended in 100 μL at a concentration of 2×10^4 cells per well in 96-well plates. For the adhesive cell type, the cells were allowed to reseed to the bottom of the plates overnight and the fresh medium were added to each well upon removal of the old medium. […] At the end of this time, the number of viable cells each wells was determined by a quantitative colorimetric staining assay using a tetrazolium salt (MTT, Sigma Chemical Co.). […]

SB-T-1214-fluorescein gave an IC50 of 0.0876 µM.

— patent US20100021471A1, “CARBON NANOTUBE-BASED DRUG DELIVERY SYSTEMS AND METHODS OF MAKING SAME” (Brookhaven Science Associates, LLC, priority 2008, published 2010)
